Experimental findings from patent publication US5095137A, “Amides of cyclomethylen-1,2-bicarboxylic acids having therapeutical activity” (Laboratori Guidotti SpA, priority 1988, dated 1992) are described below.

In one test the target is T1, ACE (Rattus norvegicus, UniProt P47820).
T1 construct: by the ACE contained in the rat serum; from tissue; host or cells: rat serum
T1 sequence (P47820 36-1238 limits assumed): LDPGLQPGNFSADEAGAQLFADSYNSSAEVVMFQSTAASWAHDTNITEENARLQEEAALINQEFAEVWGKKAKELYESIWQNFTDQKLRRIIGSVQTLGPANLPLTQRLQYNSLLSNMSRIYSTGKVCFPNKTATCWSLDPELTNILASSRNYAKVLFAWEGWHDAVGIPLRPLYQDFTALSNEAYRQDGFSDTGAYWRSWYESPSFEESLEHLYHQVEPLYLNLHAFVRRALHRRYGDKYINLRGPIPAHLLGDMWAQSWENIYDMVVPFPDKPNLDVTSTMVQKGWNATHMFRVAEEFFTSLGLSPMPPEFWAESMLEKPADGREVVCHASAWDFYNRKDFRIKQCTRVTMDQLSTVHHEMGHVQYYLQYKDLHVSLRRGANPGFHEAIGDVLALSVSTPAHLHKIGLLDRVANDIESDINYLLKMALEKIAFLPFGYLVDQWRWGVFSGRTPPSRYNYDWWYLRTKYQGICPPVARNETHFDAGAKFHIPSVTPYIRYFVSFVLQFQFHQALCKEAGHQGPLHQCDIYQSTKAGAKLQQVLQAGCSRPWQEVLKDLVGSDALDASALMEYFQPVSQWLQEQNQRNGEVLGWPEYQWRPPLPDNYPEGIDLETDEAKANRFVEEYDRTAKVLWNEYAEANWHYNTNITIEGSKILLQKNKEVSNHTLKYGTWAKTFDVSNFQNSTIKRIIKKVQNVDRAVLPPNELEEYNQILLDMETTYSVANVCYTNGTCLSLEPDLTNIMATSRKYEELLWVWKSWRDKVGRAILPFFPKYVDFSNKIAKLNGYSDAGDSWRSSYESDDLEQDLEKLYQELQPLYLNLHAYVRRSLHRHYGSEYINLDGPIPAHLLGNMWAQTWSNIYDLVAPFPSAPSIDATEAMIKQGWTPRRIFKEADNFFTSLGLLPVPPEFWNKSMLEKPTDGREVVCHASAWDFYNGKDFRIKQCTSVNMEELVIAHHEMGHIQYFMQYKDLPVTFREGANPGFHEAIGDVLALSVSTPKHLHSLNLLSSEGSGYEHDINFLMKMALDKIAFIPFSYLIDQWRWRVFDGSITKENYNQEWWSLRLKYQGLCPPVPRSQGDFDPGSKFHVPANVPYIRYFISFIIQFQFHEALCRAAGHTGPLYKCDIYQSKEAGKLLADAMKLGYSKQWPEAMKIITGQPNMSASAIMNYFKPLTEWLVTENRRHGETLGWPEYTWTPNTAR
The test can be described thus: ACE inhibition: hydrolysis of the ippuril-glycil-glycine artificial substrate by the ACE contained in rat serum. In kind it is biochemical. From the text: The IC50 values have been calculated by the regression analysis of the linear part of the log dose/percent inhibition curve.

Test [1] deals with blood pressure increases induced by angiotensin I. The test is described as follows: Antihypertensive activity i.v. in the anaesthetized ganglion-blocked rat (inhibition of blood pressure increases induced by repeated i.v. injections of angiotensin I). In kind it is in vivo. Here is the method: Dose-dependent antihypertensive activity of selected compounds was calculated after intravenous administration to the anaesthetized ganglion-blocked rat. […] Half-lives (t1/2) of the antihypertensive action were also calculated and reported.

For test [2], the system named is pressure answer to angiotensin II. The test is described as follows: Influence on the pressure answer to angiotensin II. Type of test: in vivo. The note with it: up to the dose of 1 mg kg i.v.

The molecule `CCN(CC(=O)NO)C(=O)[C@@H]1CCCC[C@H]1C(=O)O` [Example 7, trans-(1R,2R)-2[[N-[2-(hydroxyamino)-2-oxoethyl]N-ethylamino]carbonyl]-cyclohexanecarboxylic acid] came in with an IC50 on ACE of 7.6 nM.

For the molecule `CN(C(=O)[C@H]1CCCC[C@H]1C(=O)O)C(CCCc1ccccc1)C(=O)NO` (relative stereo) [Example 32, Cis-2[[N-[1-(3-phenylpropyl)-2-(hydroxyamino)-2-oxoethyl]-N-methylamino]carbonyl]-cyclohexanecarboxylic acid], on ACE, the half-inhibitory concentration (IC50) was found to be 135 nM.

The molecule `CC(=O)ON(C(C)=O)C(=O)CN(C)C(=O)[C@H]1CCCC[C@H]1C(=O)O` (relative stereo) [Example 14, Cis-2-[[N-[2-(N'-acetoxy-N'-acetylamino)-2-oxoethyl]-N-methyl-amino]carbonyl]cyclohexanecarboxylic acid] showed an IC50 on ACE of 280 nM. Also, it took a dose of 1.5 mg/kg to reach the 50% effect level in test [1] (iv, 1 min, angiotensin I-induced pressure increase, at time of maximum effect (1 min)) (ED50). In the case of `CN(CC(=O)NO)C(=O)[C@@H]1CCCC[C@@H]1C(=O)O` [Example 9, Cis-(1S,2R)-2[[N-[2-(hydroxyamino)-2-oxoethyl]-N-methylamino]carbonyl]-cyclohexanecarboxylic acid], half-maximal inhibition against ACE (IC50) was put at 3.5 nM. Molecule `CN(CC(=O)NO)C(=O)[C@H]1CCCC[C@H]1C(=O)O` (relative stereo) [Example 4, cis-2[[N-[2-(hydroxyamino)-2-oxoethyl]-N-methylamino]carbonyl]-cyclohexanecarboxylic acid] showed an IC50 against ACE of 6 nM. The “Antihypertensive activity t1/2 (half-life of the antihypertensive action)” value in test [1] is reported as 15 min. Further, the “influence on the pressure answer to angiotensin II” value in test [2] is recorded as “has not influenced”. The molecule `CN(CC(=O)NO)C(=O)[C@@H]1CCCC[C@H]1C(=O)O` (relative stereo) [Example 21, Trans-2-[[N-[2-(hydroxyamino)-2-oxoethyl]-N-methylamino]carbonyl]-cyclohexanecarboxylic acid] had an IC50 at ACE of 20 nM. In test [1], the “Antihypertensive activity t1/2 (half-life of the antihypertensive action)” value amounted to 15 min. Molecule `O=C(CNC(=O)[C@H]1CCCC[C@H]1C(=O)O)NO` (relative stereo) [Example 1] had a concentration for half-maximal inhibition (IC50) at ACE of 1600 nM. Regarding `CN(C(=O)[C@@H]1CCCC[C@H]1C(=O)O)C(Cc1ccccc1)C(=O)NO` (relative stereo) [Example 30, Trans-2[[N-[1-benzyl-2-(hydroxyamino)-2-oxoethyl]-N-methylamino]carbonyl]-cyclohexanecarboxylic acid], the half-inhibitory concentration (IC50) against ACE was found to be 30 nM.

Regarding `CCN(CC(=O)NO)C(=O)[C@H]1CCCC[C@H]1C(=O)O` (relative stereo) [Example 26, Cis-2[[N-[2-(hydroxyamino)-2-oxoethyl]-N-ethylamino]carbonyl]cyclohexane-carboxylic acid], half-maximal inhibition against ACE (IC50) was put at 25 nM.

Regarding `CN(C(=O)[C@H]1CCCC[C@H]1C(=O)O)C(Cc1ccccc1)C(=O)NO` (relative stereo) [Example 29, Cis-2[[N-[1-benzyl-2-(hydroxyamino)-2-oxoethyl]-N-methylamino]carbonyl]-cyclohexanecarboxylic acid], on ACE, the IC50 was 30 nM.

Regarding `CCN(CC(=O)NO)C(=O)[C@@H]1CCCC[C@H]1C(=O)O` (relative stereo) [Example 2, Trans-2[[N-[2-(hydroxyamino)-2-oxoethyl]-N-ethylamino]carbonyl]- -cyclohexanecarboxylic acid], the IC50 at ACE was determined as 8 nM. The “Antihypertensive activity t1/2 (half-life of the antihypertensive action)” value in test [1] is given as 14 min. `CN(C(=O)[C@H]1CCCC[C@H]1C(=O)O)C(CCc1ccccc1)C(=O)NO` (stereo partly drawn) [Example 8, Cis-2[[N-[1-(2-phenylethyl)-2-(hydrxyamino)-2-oxoethyl]-N-methylamino]carbonyl]-cyclohexanecarboxylic acid] registered a 50% inhibitory concentration (IC50) on ACE of 62 nM. On the same count and under the same terms, in the case of `O=C(NO)C(CCCc1ccccc1)NC(=O)[C@H]1CCCC[C@H]1C(=O)O` (relative stereo) [Example 20, Cis-2[[N-[1-(3-phenylpropyl)-2-(hydroxyamino)-2-oxoethyl]amino]carbonyl]-cyclohexanecarboxylic acid] it was 10000 nM; in that of `O=C(NO)C(CNC(=O)[C@H]1CCCC[C@H]1C(=O)O)Cc1ccccc1` (stereo partly shown) [Example 3], 3500 nM; in that of `O=C(NO)C(CCc1ccccc1)NC(=O)[C@H]1CCCC[C@H]1C(=O)O` (relative stereo) [Example 19, Cis-2[[N-[1-(2-phenylethyl)-2-(hydroxyamino)-2-oxoethyl]amino]carbonyl]cyclohexanecarboxylic acid], 28000 nM.

At ACE, `O=C(NO)C(Cc1ccccc1)NC(=O)[C@H]1CCCC[C@H]1C(=O)O` (relative stereo) [Example 18, Cis-2[[N-[1-benzyl-2-(hydroxyamino)-2-oxoethyl]amino]carbonyl]-cyclohexane carboxylic acid] came in with an IC50 of 400 nM. Turning to `CN(CC(=O)NO)C(=O)[C@@H]1CCC[C@H]1C(=O)O` (relative stereo) [Example 6, Trans-2[[N-[2-(hydroxyamino)-2-oxoethyl]-N-methylamino]carbonyl]cyclopentanecarboxylic acid], it took 730 nM to reach half-maximal inhibition against ACE (IC50).
